Test results from article PMC3878761, “Interactions of peptide triazole thiols with Env gp120 induce irreversible breakdown and inactivation of HIV-1 virions” (Retrovirology, 2013).
Entries after “also recorded” stand apart in the source; their conditions may differ. Like-named read-outs stand apart in the source and are kept apart here.

Experiments:
HIV-1 BaL pseudovirus [1] = test system: HIV-1 BaL pseudovirus
[2] = test system: fully infectious HIV-1 BaL virions; experiment: gp120 shedding from fully infectious HIV-1 BaL; conditions: read-out: gp120 shedding IC50 (*, fully infectious), 30 min at 37°C, western blot, ± SD
Experimental: (§2) The replication competent virions were assayed for peptide triazole-induced inhibition of infection, gp120 shedding and p24 release in a BSL-2 facility. Gradient purification of the viruses and p24 release assays were performed as with pseudoviruses (described in Materials and Methods above). Cell infection by virus and its inhibition by peptide triazoles were tested using a modified version of a previously reported p24 ELISA assay [60]. The p24 release assays as well as detection of gp120 shedding were conducted as with the BaL pseudovirions (described in Materials and Methods above).
(§3) Virions were purified using 6-20% iodixanol gradient and p24 content measured using ELISA. […] HOS CD4^+ve CCR5^+ve cells seeded, at 8,000 cells per well in a 96 well plate, were incubated for 24 hours followed by addition of pre-incubated inhibitor-virus mixture. […] Further, the peptide triazole and cell-free virus were pre-incubated for 30 min at 37°C followed by spinning for 2 hours at 13,600 rpm in a table top centrifuge (Eppendorf) at 4°C. Supernatant was separated and p24 content determined using the p24 capture ELISA (explained in the main Materials and Methods section) and gp120 using western blot analysis (explained in the Supplementary Text above).

[3] = test system: gp41 of HIV-1 BaL pseudovirus (2 F5 epitope); experiment: exposure of gp41 MPER epitope, 2 F5 ELISA; conditions: fixed BaL pseudovirions, 30 min at 37°C (dose) or 1 μM (time), n = 3
Experimental: (§1) We also measured the presence of gp41 epitopes for human mAb’s 2 F5 and 4E10 using an altered ELISA detection method to minimize virus particle disruption. […] Virus fractions were collected and fixed with equal volume of 0.1% paraformaldehyde for 30 minutes at 4°C. The treated virus fractions were spun at 16,000 X g for 2 hours at 4°C in an Eppendorf table top centrifuge. Following PBS wash, fixed virions were coated on an ELISA plate at 50 μl per well and incubated overnight at 4°C. The plate was blocked with 3% BSA, and ELISA was used to detect gp41 epitopes with human gp41 antibodies 2 F5 and 4E10 followed by addition of anti-human IgG HRP secondary antibody.

HIV-1 BaL pseudovirus [4] = experiment: gp120 shedding from HIV-1 BaL pseudovirus (western blot)
[5] = test system: gp41 of HIV-1 BaL pseudovirus (98–6 epitope); experiment: gp41 content of treated virions, mAb 98-6 western blot; conditions: western blot mAb 98–6, BaL pseudovirus
[6] = test system: gp41 of HIV-1 BaL pseudovirus (4E10 epitope); experiment: exposure of gp41 MPER epitope, 4E10 ELISA; conditions: fixed BaL pseudovirions, 30 min at 37°C (dose) or 1 μM (time), n = 3
Experimental: as §1

[7] = test system: fully infectious HIV-1 BaL virions; conditions: read-out: p24 release IC50 (*, fully infectious), 30 min at 37°C, p24 capture ELISA, ± SD
Experimental: as §2, §3

HIV-1 YU2 gp120 = biological target: T1, HIV-1 YU2 gp120 (Human immunodeficiency virus type 1 group M subtype B, UniProt P35961); experiment: SPR direct binding to immobilized YU2 gp120; conditions: immobilized YU2 gp120, PBS + 0.005% Tween 20, pH 7.2, 25°C
T1 construct: made in house; host or cells: 293F cells
Experimental: (Additional file 1: Figure S2). […] Direct binding of the peptide triazole to sensor chip immobilized HIV-1 YU2 gp120 was measured as previously described using Surface Plasmon Resonance (SPR) with a Biacore 3000 optical biosensor (GE Healthcare). […] The cell viability was measured using the tetrazolium salt premix reagent, WST-1 from Takara Bio Inc. following the manufacturer’s protocol. The formazan product was measured using the microplate reader at absorbance wavelength 460 nm (Molecular Devices).

[8] = test system: pseudotype virions bearing the HIV-1 BaL envelope glycoprotein; conditions: determined by release of the p24 capsid protein; cited from earlier work
Excerpt: Since gp120 is the first viral protein to interact with the host cell, it is an attractive target for inhibiting infection. […] This inhibition is mediated by binding to a region of gp120 that partially overlaps the CD4 binding site.

HIV-1 BaL pseudovirus [9] = experiment: p24 release from HIV-1 BaL pseudovirus (ELISA)
HIV-1 BaL pseudovirus [10] = experiment: TEM morphology of treated virions; conditions: KR13 1 μM, 24 hours
[11] = test system: R5-tropic and X4-tropic HIV-1; set-up: method as in 2 sources, one per row (each row's own in cited_ref): ref 7-9, 12 = [7]; PMID 20518583; doi:10.2165/11203940-000000000-00000; Perry CM Maraviroc: a review of its use in the management of CCR5-tropic HIV-1 infection Drugs 2010 10 9 1189 1213 10.2165/11203940-000000000-00000 20518583 || [8]; PMID 23541872; doi:10.1016/j.antiviral.2013.03.017; Haqqani AA Tilton JC Entry inhibitors and their use in the treatment of HIV-1 infection Antiviral Res 2013 10 2 158 170 10.1016/j.antiviral.2013.03.017 23541872 || [9]; PMID 23290628; doi:10.1016/j.coviro.2012.12.002; Henrich TJ Kuritzkes DR HIV-1 entry inhibitors: recent development and clinical use Curr Opin Virol 2013 10 1 51 57 10.1016/j.coviro.2012.12.002 23290628 PMC4213740 || [12]; PMID 17933722; Emmelkamp JM Rockstroh JK CCR5 antagonists: comparison of efficacy, side effects, pharmacokinetics and interactions–review of the literature Eur J Med Res 2007 10 9 409 417 17933722 ||| ref 34 = [34]; PMID 23470147; doi:10.1021/bi400166b; Emileh A Tuzer F Yeh H Umashankara M Moreira DR Lalonde JM Bewley CA Abrams CF Chaiken IM A model of peptide triazole entry inhibitor binding to HIV-1 gp120 and the mechanism of bridging sheet disrupt; conditions: cited from earlier work
[12] = test system: CHO-K1 cells expressing gp160; experiment: gp120 shedding and lysis, CHO-K1 cells expressing gp160; type: cell-based; conditions: unpublished results, manuscript in preparation
[13] = KR13 1 μM or HNG156 100 μM, 1 min to 24 hours, 37°C
[14] = KR13 (1 μM), 30 minutes exposure, n = 3

CC[C@H](C)[C@H](NC(=O)[C@@H](N)CCCNC(=N)N)C(=O)N[C@@H](CC(N)=O)C(=O)N[C@@H](CC(N)=O)C(=O)N[C@H](C(=O)N1C[C@@H](n2cc([C]34[CH]5[CH]6[CH]7[CH]3[Fe]6754389%10[CH]4[CH]3[CH]8[CH]9[CH]4%10)nn2)C[C@H]1C(=O)N[C@@H](Cc1c[nH]c2ccccc12)C(=O)N[C@@H](CO)C(=O)N[C@@H](CCC(=O)O)C(=O)N[C@@H](C)C(=O)N[C@@H](CCSC)C(=O)N[C@@H](CCSC)C(=O)NCCC(=O)N[C@@H](CCC(N)=O)C(=O)NCCC(=O)N[C@@H](CS)C(N)=O)[C@@H](C)CC (stereo partly drawn) [KR13]
kinetics of infectivity inhibition versus gp120 shedding (HIV-1 BaL pseudovirus [1]; [13]): infectivity inhibition and gp120 shedding had similar kinetics
loss of infectivity (HIV-1 BaL pseudovirus [1]; [14]): 65-70%
inhibition of infection, in words (HIV-1 BaL pseudovirus [1]; single round infection assay): inhibited infection
IC50 [2]: 1200 nM
reactivity to 2 F5 [3]: reactivity to 4E10 and 2 F5 increased in a dose-dependent manner; also recorded: time dependent exposure of the MPER epitope
gp120 shedding, in words (HIV-1 BaL pseudovirus [4]): caused gp120 shedding
loss of gp120 (HIV-1 BaL pseudovirus [4]; [14]): 65-70%
gp41 retention / 98–6 detection [5]: gp41 remained associated with virions; also recorded: gp41 was detected only weakly by 98–6 in either soluble or virion-associated fractions
reactivity to 4E10 [6]: reactivity to 4E10 and 2 F5 increased in a dose-dependent manner; also recorded: time dependent exposure of the MPER epitope
IC50 [7]: 4400 nM
SPR direct binding to gp120, in words (HIV-1 YU2 gp120): proportionally increasing binding responses to immobilized gp120 at increasing concentrations of KR13
lysis of BaL pseudotype virions [8]: induced lysis of pseudotype virions bearing the HIV-1 BaL envelope glycoprotein
kinetics of p24 release (HIV-1 BaL pseudovirus [9]; [13]): delayed kinetically
loss of p24 (HIV-1 BaL pseudovirus [9]; [14]): 10%
reduction in virion p24 content (HIV-1 BaL pseudovirus [9]; KR13 (1 μM), 360 minutes): 50%
IC50 (HIV-1 BaL pseudovirus [9]; read-out: p24 release IC50, 30 minutes, gradient fractionation, capture ELISA, 1% triton X = 100%, ± SD, n > 3): 32 ± 10 nM
core morphology of virions (HIV-1 BaL pseudovirus [10]): substantially different, with a shriveled and disordered appearance
reduction of virion diameter (HIV-1 BaL pseudovirus [10]; 37°C, n = 16): > 50%
inhibition of R5- and X4-tropic viruses [11]: potent inhibitor of R5- and X4-tropic viruses
gp120 shedding, CHO-K1 cells expressing gp160 [12]: caused gp120 shedding
lysis of CHO-K1 cells expressing gp160 [12]: did not lyse the cells
